# Laboratory results published in US20140212401A1, “USE OF SYNTHETIC AND BIOLOGICAL FUNGICIDES IN COMBINATION FOR CONTROLLING HARMFUL FUNGI” (Bayer CropScience LP, priority 2009, published 2014).
# Assays:
# [1] = system: Pseudoperonospora cubensis; experiment: Example 4: inoculated cucurbits, spray treatments, visual % infection of leaves; type: in vivo; settings: 28 days after first treatment
# Description: The results are compiled in Table 4 below. [table]
# [2] = system: Bremia lactucae; experiment: Example 23: inoculated lettuce, spray treatments, visual % infection of plant; settings: Boscalid (CANTUS 1 kg/ha) applications AB
# Description: (§1) Evaluation was carried out by visually determining the infected leaf areas in %.
# The test plants were inoculated with an aqueous spore suspension of Bremia lactucae. […] For comparison, a part of the plants was sprayed with boscalid alone (used as the commercial product CANTUS®, BASF; dose rate per treatment: 1 kg/ha; diluted with water to 500 L/ha). […] 7 days after the last treatment, the extent of the development of the disease was determined visually in % infection of the plant.
# [3] = system: Sclerotinia sclerotiorum; experiment: Example 11: inoculated beans, spray treatments, visual % infection of plants; settings: Boscalid (CANTUS 1.0 kg/ha) application A
# Description: as §1
# Beans were cultivated and grown under standard conditions with adequate supply of water and nutrients. The test plants were inoculated with an aqueous spore suspension of Sclerotinia sclerotiorum. […] For comparison, a part of the plants was sprayed with boscalid alone (used as the commercial product CANTUS®, BASF; dose rate per treatment: 1.0 kg/ha; diluted with water to 500 L/ha). […] 28 and 35 days after the first treatment (0 or 7 days after last treatment), the extent of the development of the disease was determined visually in % infection of the plants.
# [4] = system: Monilinia laxa; experiment: Example 7: inoculated stonefruit, spray treatments, visual % infection of plant
# Description: as §1
# Stonefruit was grown under standard conditions with adequate supply of water and nutrients. The test plants were inoculated with an aqueous spore suspension of Monilinia laxa. […] Another part was sprayed both with boscalid and B. subtilis strain QST713. 5 and 11 days after the first treatment (0 or 6 days after last treatment), the extent of the development of the disease was determined visually in % infection of the plant.
# [5] = system: Botrytis cinerea; experiment: Example 1: inoculated vine grapes cv. Riesling, spray treatments, visual % infection of racemes
# Description: as §1
# Vine grapes of the cultivar “Riesling” were grown under standard conditions with adequate supply of water and nutrients. The test plants were inoculated with an aqueous spore suspension of Botrytis cinerea. […] For comparison, a part of the plants was sprayed with boscalid alone (used as the commercial product CANTUS®, BASF; dose rate per treatment: 1.2 kg/ha; diluted with water to 800 L/ha). […] 95 and 100 days after the first treatment (25 or 30 days after last treatment), the extent of the development of the disease was determined visually in % infection of the racemes.
# [6] = system: Venturia inequalis (VENTIN); experiment: Example 18: field trial apple cv. Rubinette, natural infection, percent infected leaf area
# Description: The trial was conducted under field conditions. Established apple plants (cv. Rubinette) were grown under standard conditions with adequate supply of water and nutrients. The application was repeated 6 to 10 times (see below) with 7-14 days intervals applying single products or product mixtures. No other products or compounds were applied for pathogen control. […] VENTIN infection occurred naturally. Disease incidences were evaluated 6 days after 10th application (6 DAT(10)). Disease levels observed were rated in percent infected leaf area in the respective plot given as % attack.
# [7] = system: Plasmopara viticola (PLASVI); experiment: Example 17: field trial grapevine cv. Müller-Thurgau, natural infection, percent infected leaf area and clusters; settings: for Attacked Leaf Area/Clusters 10 DAA(7): percent infected clusters; for Attacked Leaf Area/Clusters 4 DAA(9): percent infected leaf area
# Description: The trial was conducted under field conditions. Established grapevine plants (cv. Müller-Thurgau) were grown under standard conditions with adequate supply of water and nutrients.
# The application was repeated 4 to 9 times (see below) with 7-14 days intervals applying single products. No other products or compounds were applied for pathogen control. […] For comparison, a part of the plants was sprayed with dithianon alone (used as the commercial product DELAN®, Bayer CropScience; 0.75 kg/ha). […] Another part was sprayed both with dithianon and B. subtilis strain QST713. PLASVI infection occurred naturally. Disease incidences were evaluated 10 days after 7th application (10 DAA(7)) and 4 days after 9th application (4 DAA(9)). Disease levels observed were rated in percent infected leaf area (4 DAA(9)) and in percent infected clusters (10 DAA(7)) in the respective plot given as % attack.
# [8] = system: Botrytis cinirea (BOTRCI); experiment: Example 16: field trial grapevine cv. Müller-Thurgau, natural infection, percent infected clusters
# Description: The trial was conducted under field conditions. Established grapevine plants (cv. Müller-Thurgau) were grown under standard conditions with adequate supply of water and nutrients. The application was repeated 4 to 9 times (see below) with 7-14 days intervals applying single products. No other products or compounds were applied for pathogen control. […] For comparison, a part of the plants was sprayed with dithianon alone (used as the commercial product DELAN®, Bayer CropScience; 0.75 kg/ha). […] BOTRCI infection occurred naturally. Disease incidences were evaluated 21 days after 9th application (21 DAT(9)). Disease levels observed were rated in percent infected clusters in the respective plot given as % attack.
# [9] = system: Plasmopara viticola; experiment: Example 3: inoculated vine grapes, spray treatments, visual % infection of racemes and leaves, severity and frequency; settings: Dithianon (DELAN WG 525 g/ha) applications ABCDEFGHI
# Description: as §1
# The test plants were inoculated with an aqueous spore suspension of Plasmopara viticola. […] Another part was sprayed both with dithianon and B. subtilis strain QST713. 67 and 73 days after the first treatment (4 or 10 days after last treatment), the extent of the development of the disease was determined visually in % infection of the racemes. 73 days after the first treatment (10 days after last treatment), the severity and the frequency of the infection on the racemes were determined visually [%]. 87 days after the first treatment (14 days after last treatment), the extent of the development of the disease was determined visually in % infection of the leaves.
# [10] = system: Erysiphe necator (UNCINE); experiment: Example 15: field trial grapevine cv. Müller-Thurgau, natural infection, percent infected clusters
# Description: The trial was conducted under field conditions. Established grapevine plants (cv. Müller-Thurgau) were grown under standard conditions with adequate supply of water and nutrients. The application was repeated 3 to 6 times (see below) with 14 days intervals applying single products. No other products or compounds were applied for pathogen control. […] For comparison, a part of the plants was sprayed with metrafenone alone (used as the commercial product VIVANDO®, BASF; 0.2 L/ha). […] UNCINE infection occurred naturally. Disease incidences were evaluated 6 days after 5th application (6 DAT(5)) and 15 days after 6th application (15 DAT(6)). Disease levels observed were rated in percent infected clusters in the respective plot given as % attack.
# [11] = system: Leveillula taurica; experiment: Example 10: inoculated peppers, spray treatments, visual % infection of leaves; settings: Metrafenone (VIVANDO 0.2 L/ha) applications AB
# Description: as §1
# The test plants were inoculated with an aqueous spore suspension of Leveillula taurica. […] For comparison, a part of the plants was sprayed with metrafenone alone (used as the commercial product VIVANDO®, BASF; dose rate per treatment: 0.2 L/ha; diluted with water to 800 L/ha). […] 35 and 42 days after the first treatment (7 or 14 days after last treatment), the extent of the development of the disease was determined visually in % infection of the leaves.
# [12] = system: Uncinula necator; experiment: Example 13: inoculated grapes, spray treatments, visual % infection of raceme and leaves; type: in vivo
# Description: The results are compiled in Table 13 below.
# [13] = system: Erysiphe necator; experiment: Example 29: inoculated grapes, spray treatments, visual % infection of clusters; settings: Metrafenone (VIVANDO 0.27 L/ha) applications ABCD
# Description: Grapes were grown under standard conditions with adequate supply of water and nutrients. The test plants were inoculated with an aqueous spore suspension of Erysiphe necator. […] For comparison, a part of the plants was sprayed with metrafenone alone (used as the commercial product VIVANDO®, BASF; dose rate per treatment: 0.27 L/ha; diluted with water to 800 L/ha). […] 11 days after the 6th application, the extent of the development of the disease was determined visually in % infection of the clusters.
# [14] = system: Sphaerotheca fuliginea; experiment: Example 27: inoculated cucumbers, spray treatments, visual % infection of leaves; settings: 38 days after first treatment; Metrafenone (VIVANDO 0.3 L/ha) applications ABC
# Description: as §1
# Cucumbers were cultivated and grown under standard conditions with adequate supply of water and nutrients. The test plants were inoculated with an aqueous spore suspension of Sphaerotheca fuliginea. […] For comparison, a part of the plants was sprayed metrafenone alone (used as the commercial product VIVANDO®, BASF; dose rate per treatment: 0.3 L/ha; diluted with water to 500 L/ha). […] 38 days after the first treatment, the extent of the development of the disease was determined visually in % infection of the leaves.
# [15] = system: Sphaerotheca fuliginea; experiment: Example 12: inoculated cucurbits, spray treatments, visual % infection of upperside of leaves; type: in vivo; settings: 38 days after first treatment, Metrafenone (VIVANDO 0.2 L/ha) applications ABC
# Description: The results are compiled in Table 12 below.
# [16] = system: Uncinula necator; experiment: Example 2: inoculated vine grapes, spray treatments, visual % infection of racemes
# Description: Vine grapes were grown under standard conditions with adequate supply of water and nutrients. The test plants were inoculated with an aqueous spore suspension of Uncinula necator. […] For comparison, a part of the plants was sprayed with metrafenone alone (used as the commercial product VIVANDO®, BASF; dose rate per treatment: 0.02 Vol.-%; diluted with water to 800 L/ha). […] 85 and 91 days after the first treatment (15 or 21 days after last treatment), the extent of the development of the disease was determined visually in % infection of the racemes.
# [17] = system: Sphaerotheca fuliginea; experiment: Example 9: inoculated melons, spray treatments, visual % infection of plant
# Description: as §1
# Melons were cultivated and grown under standard conditions with adequate supply of water and nutrients. The test plants were inoculated with an aqueous spore suspension of Sphaerotheca fuliginea. […] For comparison, a part of the plants was sprayed with metrafenone alone (used as the commercial product VIVANDO®, BASF; dose rate per treatment: 0.2 L/ha; diluted with water to 500 L/ha). […] 27 and 34 days after the first treatment (1 or 8 days after last treatment), the extent of the development of the disease was determined visually in % infection of the plant.
# [18] = system: Cercospora beticola; experiment: Example 8: inoculated sugar beets, spray treatments, visual % infection of plant
# Description: as §1
# Sugar beets were cultivated and grown under standard conditions with adequate supply of water and nutrients. The test plants were inoculated with an aqueous spore suspension of Cercospora beticola. […] For comparison, a part of the plants was sprayed with pyraclostrobin alone (used as the commercial product HEADLINE®, BASF; dose rate per treatment: 0.6 L/ha; diluted with water to 400 L/ha). […] 46 and 53 days after the first treatment (7 or 14 days after last treatment), the extent of the development of the disease was determined visually in % infection of the plant.
# [19] = Boscalid application A (pyraclostrobin/boscalid mixture PRISTINE 0.66 g/ha)
# [20] = Boscalid applications AB (pyraclostrobin/boscalid mixture PRISTINE 0.66 g/ha)
# [21] = Boscalid (CANTUS 1.2 kg/ha) applications AB
# [22] = Boscalid (CANTUS 1.2 kg/ha) applications ABC
# [23] = Dithianon (DELAN 0.75 kg/ha) applications ABCD
# [24] = Dithianon (DELAN 0.75 kg/ha) applications ABCDEFGHI
# [25] = Metrafenone (VIVANDO 0.2 L/ha) applications ABC
# [26] = Metrafenone (VIVANDO 0.2 L/ha) applications ABCDEF
# [27] = Metrafenone (VIVANDO 0.2 L/ha) applications ABCDE
# [28] = Metrafenone (VIVANDO 0.2 L/ha) applications ABCDEFG
# [29] = Metrafenone (VIVANDO 0.02 Vol.-%) applications ABC
# [30] = Metrafenone (VIVANDO 0.02 Vol.-%) applications ABCD
# [31] = Metrafenone (VIVANDO 0.2 L/ha) application A
# [32] = Metrafenone (VIVANDO 0.2 L/ha) applications AB
# [33] = Pyraclostrobin (HEADLINE 0.6 L/ha) application A
# [34] = Pyraclostrobin (HEADLINE 0.6 L/ha) applications AB
# [35] = Pyraclostrobin (HEADLINE 0.6 L/ha) applications ABC
structure (smiles),measurement,setting,value
"CCCCCCCCc1c(CC)nc2ncnn2c1N [BAS 650, 5-ethyl-6-octyl-[1,2,4]triazolo[1,5-a]pyrimidine-7-ylamine]",Attack on Leaves,[1]; BAS 650 (BAS 650 00F 1.2 L/ha) applications AB,7%
same,Attack on Leaves,[1]; BAS 650 (BAS 650 00F 1.2 L/ha) applications ABC,6.2%
"O=C(Nc1ccccc1-c1ccc(Cl)cc1)c1cccnc1Cl [Boscalid, boscalid]",Attack on Plant 7 DALT,[2],14%
same,Attack on Plant 28 DAT,[3],30%
same,Attack on Plant 35 DAT,[3],53%
same,Attack on Plant 5 DAT,[4]; [19],1.8%
same,Attack on Plant 11 DAT,[4]; [19],36%
same,Attack on Plant 5 DAT,[4]; [20],1.8%
same,Attack on Plant 11 DAT,[4]; [20],29%
same,Attack on Raceme 95 DAT,[5]; [21],35%
same,Attack on Raceme 100 DAT,[5]; [21],44%
same,Attack on Raceme 95 DAT,[5]; [22],28%
same,Attack on Raceme 100 DAT,[5]; [22],36%
"N#Cc1sc2c(=O)c3ccccc3c(=O)c=2sc1C#N [Dithianon, dithianon]",Attacked Leaf Area 6 DAT10,[6]; Dithianon (DELAN 0.75 kg/ha) applications ABCDEF,12%
same,Attacked Leaf Area 6 DAT10,[6]; Dithianon (DELAN 0.75 kg/ha) applications ABCDEFGHIJ,7.3%
same,Attacked Leaf Area/Clusters 10 DAA(7),[7]; [23],30%
same,Attacked Leaf Area/Clusters 10 DAA(7),[7]; [24],25%
same,Attacked Leaf Area/Clusters 4 DAA(9),[7]; [23],11%
same,Attacked Leaf Area/Clusters 4 DAA(9),[7]; [24],7.5%
same,Attacked Clusters 21 DAT(9),[8]; [23],12%
same,Attacked Clusters 21 DAT(9),[8]; [24],15%
same,Attack on Leaves 87 DAT,[9],25%
same,Attack on Raceme 67 DAT,[9],34%
same,Attack on Raceme 73 DAT,[9],48%
same,Frequency 73 DAT,[9]; infection on racemes,37%
same,Severity 73 DAT,[9]; infection on racemes,7.5%
"COc1cc(C)c(C(=O)c2c(OC)ccc(Br)c2C)c(OC)c1OC [Metrafenone, metrafenone]",Attacked Clusters 6 DAT(5),[10]; [25],7.9%
same,Attacked Clusters 15 DAT(6),[10]; [25],26%
same,Attacked Clusters 6 DAT(5),[10]; [26],2.2%
same,Attacked Clusters 15 DAT(6),[10]; [26],4.2%
same,Attack on Plant 35 DAT,[11],22%
same,Attack on Plant 42 DAT,[11],43%
same,Attack on Leaves 76 DAT,[12]; [27],4.3%
same,Attack on Leaves 90 DAT,[12]; [27],35%
same,Attack on Raceme 76 DAT,[12]; [27],8.3%
same,Attack on Raceme 90 DAT,[12]; [27],43%
same,Attack on Leaves 76 DAT,[12]; [28],3.0%
same,Attack on Leaves 90 DAT,[12]; [28],13%
same,Attack on Raceme 76 DAT,[12]; [28],6.0%
same,Attack on Raceme 90 DAT,[12]; [28],22%
same,Attack on clusters 11 DAA (6),[13],25%
same,Attack on Leaves,[14],15%
same,Attack on Leaves,[15],50%
same,Attack on Raceme 85 DAT,[16]; [29],26%
same,Attack on Raceme 91 DAT,[16]; [29],32%
same,Attack on Raceme 85 DAT,[16]; [30],11%
same,Attack on Raceme 91 DAT,[16]; [30],14%
same,Attack on Plant 27 DAT,[17]; [31],24%
same,Attack on Plant 34 DAT,[17]; [31],32%
same,Attack on Plant 27 DAT,[17]; [32],9.2%
same,Attack on Plant 34 DAT,[17]; [32],14%
"COC(=O)N(OC)c1ccccc1COc1ccn(-c2ccc(Cl)cc2)n1 [Pyraclostrobin, pyraclostrobin]",Attack on Plant 46 DAT,[18]; [33],11%
same,Attack on Plant 53 DAT,[18]; [33],17%
same,Attack on Plant 46 DAT,[18]; [34],4.7%
same,Attack on Plant 53 DAT,[18]; [34],5.7%
same,Attack on Plant 46 DAT,[18]; [35],2.7%
same,Attack on Plant 53 DAT,[18]; [35],3.7%
